Test results reported in PMC11334571, “EpCAM-targeted betulinic acid analogue nanotherapy improves therapeutic efficacy and induces anti-tumorigenic immune response in colorectal cancer tumor microenvironment” (Journal of Biomedical Science, 2024).

Tests used:
HT-29 cells = experiment: Colony formation assay; assay type: cell-based, human; details: HT-29, treated every 3 days for 12–14 days
Method: The colony formation assay, also known as the clonogenic assay, is a cell biology technique used to evaluate the ability of individual cells to undergo unlimited division and form colonies. This assay is commonly employed in cancer research, radiation biology, and drug screening studies to assess cells' proliferative potential and sensitivity to various treatments or conditions. A clonogenic assay was conducted here to evaluate the inhibitory effect of the free drug and nanoencapsulated therapies on the tumor-initiating capacity or colony formation potential of the colorectal cancer cells. About 500 cells were seeded for both the cell lines HT-29 and HCT116 in each well of a 12-well plate, followed by incubation overnight. The cells were treated with 2c, 2cNP, and Apt-2cNP every 3 days for a total of 12–14 days except for the control groups. After completion of drug incubation, the treated medium was withdrawn, and the cells were washed with PBS. 10% acetic acid (in methanol) was used as a fixation buffer, and colonies were stained with crystal violet solution (0.5% crystal violet in 25% methanol) and washed with PBS three times to remove excess dye. […] After imaging, the crystal violet stained colonies were dissolved in 10% acetic acid solution for 15 min under shaking conditions, and the absorbance of the supernatant was detected using a plate reader at 510 nm.

[1] = system: CRC tumor microenvironment; experiment: Cytokines (ELISA) and immune cells (flow cytometry) in CRC tumor microenvironment; assay type: in vivo; details: CRC mice, 24 h and 48 h
Method: Colorectal tissues were isolated from the CRC-bearing mice before and after treatment with 2c, 2cNP, and Apt-2cNP, followed by washing with ice-cold PBS. Colons were then minced into small pieces and agitated with predigestion buffer (HBSS, 10 mM HEPES, 5 mM EDTA, 1 mM DTT, 5% FBS) for 20 min in a 37 °C incubator-shaker. The single cells suspension from the colonic tissues was prepared using a 100 µm cell strainer. The remaining tissue pieces collected from the cell strainer were then cut into finer fragments and treated with digestion solution (HBSS, 10 mM EDTA, 0.5 mg/ml collagenase D, 3 mg/ml dispase II and 5% FBS) in a 37 °C incubator-shaker for 30 min. The dissociated cells from the tissues were collected again through a 100 µm cell strainer. All the single-cell suspensions were pooled together and centrifuged using Percoll gradient. The lymphocytes were suspended in 4 ml of 40% Percoll solution and layered over 12 ml of 80% Percoll solution. Centrifugation was then carried out without a break at 1000 g for 20 min. The T cells were collected from the liquid interphase and resuspended in PBS or RPMI 1640 medium for further experiments.
To analyze cytokine levels (TNFα, IFNγ, and IL-10) and all other ELISA assays, sandwich ELISA kits were used. […] The reading was monitored using a multi-plate reader and then compared with the standard curve for actual measurement of the cytokine level. […]

CRC cancer tissue = experiment: Gene expression by qPCR in CRC tumor tissue; assay type: in vivo, mice; details: CRC mouse model
Method: Gene expression analysis by quantitative real-time polymerase chain reaction (qPCR) is widely used in molecular biology and genetics research. qPCR allows the detection and quantification of specific RNA transcripts, providing insights into the expression levels of genes under various conditions or in different cell types or tissues. The expression of several genes related to apoptosis, autophagy, DNA synthesis, and inflammatory pathways were analyzed after treatment with 2c, 2cNP, and Apt-2cNP to understand the molecular mechanism behind their cytotoxic effects and to determine differences between aptamer-conjugated and unconjugated nanoparticles. Total RNA from CRC cancer tissue before and after treatment was isolated after completion of treatment time using TRIzol, following the manufacturer’s protocol. The RNA was checked for quality by measuring the […] ratio and quantified in a NanoDrop instrument. Then, cDNAs were prepared using RevertAid First Strand cDNA synthesis kit (ThermoFisher) followed by amplified using SYBR Green Master Mix (BioRad) in a thermal cycler (Veriti 96-well, Applied Biosystems, Massachusetts, USA). Relative transcript abundance values obtained from the instrument were plotted in bar diagrams. A total of 12 genes (caspase 3, Bcl-2, Bcl-XL, Bax, Atg5, LC3B, Beclin, p62, NF-κB, APC, p53, and TOP2) were analyzed for each sample. Sequences of the primers used (both forward primer and reverse primer) for each gene are in Supplementary Table T2.

[2] = Pharmacokinetic evaluation; assay type: in vivo; details: CRC-bearing mice, intravenous 25 mg/kg, plasma 2c
Method: Pharmacokinetic evaluation informs the time course of drug absorption, distribution, metabolism, and elimination (ADME) within the body. It is a crucial aspect of drug development and is vital in understanding how a drug behaves in vivo. 2c, 2cNP, and Apt-2cNP were injected separately into CRC-bearing mice through intravenous injection (dose: 25 mg/kg). Blood samples were withdrawn at 4 h, 8 h, 10 h, 12 h, 24 h, 48 h, 72 h, and 96 h post-injection, and plasma concentrations of 2c for all samples were determined using LC–MS following a previously described method. A plasma concentration vs time curve was generated using GraphPad Prism (version 5.0). Cmax and Tmax were determined directly from the curve. AUC, AUMC, and AUC0–∞ were calculated using the trapezoidal method. t1/2, MRT, and clearance values were calculated using standard formulas.

DMH-induced CRC = experiment: In vivo antitumor efficacy, Ki67 immunohistochemistry of colon; design: species or system Swiss albino mice; dose or concentration left out as unconfirmed; details: CRC mice
Method: Sprague–Dawley (SD) rats (body weight = 140–160 g) and Swiss albino mice (body weight = 20–25 g) of either sex (male:female = 1:1) were selected for the chemical-induced colorectal carcinoma model. The study plan was prepared as per the guidelines of the Committee for the Purpose of Control and Supervision of Experiments on Animals (CPCSEA), India (JU-AEC; Registration Number: 1805/GO/Re/S/15/CPCSEA) and was sanctioned by the Animal Ethics Committee (AEC), Jadavpur University, (Protocol approval. no.: AEC/PHARM/1701/3/2018). The animals were procured from the National Institute of Nutrition (Hyderabad, India) and were habituated in housing conditions of 25 °C ± 1 °C temperature, 55% ± 5% relative humidity, and normal day/night photoperiod for at least 2 weeks before conducting any experiment. For the development of CRC-bearing mice, Dimethylhydrazine (DMH) was injected intraperitoneally at a dose of 20 mg/kg body weight once a week for 12 weeks. In contrast, for generating CRC-bearing rats, DMH was administered intraperitoneally at a dose of 25 mg/kg body weight once a week for 9 weeks, as described previously.
Evaluating in vivo antitumor efficacy with histopathological observations is essential to preclinical studies in cancer research and drug development. […] Ki67-positive and -negative cells were counted in microscopic images taken after staining using QuPath-0.3.2 software.

## C=C(C)[C@@H]1CC[C@]2(C(=O)O)CC[C@]3(C)[C@H](CC[C@@H]4[C@@]5(C)CC[C@H](OC(=O)Cn6cc(CO)nn6)C(C)(C)[C@@H]5CC[C@]43C)[C@@H]12 [2c, (3S)-3-[2-(4-hydroxymethyl-1H-1,2,3-triazol-1-yl)acetyloxy]-lup-20(29)-en-28-oic acid]
HT-29 cells
  Inhibition of colony formation: moderate prohibition in colony formation
[1]
  Percentages of CD4 and CD8 T cells in TME: did not change
CRC cancer tissue; 24 h and 48 h after treatment
  Topoisomerase-II RNA level: time-dependent decrease
CRC cancer tissue; 24 h and 48 h treatment
  RNA expression of anti-apoptotic genes (Bcl-2 and Bcl-XL): decrease
  RNA expression of pro-apoptotic genes (caspase 3 and Bax): time-dependent increase
CRC cancer tissue; 24 h or 48 h after treatment
  RNA expression of autophagy-related genes (Atg5, LC3B, Beclin): time-dependent increase
  p62 expression: decrease
[2]
  AUC 0-∞: 380 ± 44 ng·h/mL
  AUC last: 376 ± 42 ng·h/mL
  AUMC: 8381 ± 1644 ng.h2/ml
  Clearance: 333 ± 30 mL/h
  Cmax: 23.5 ± 0.55 ng/mL
  MRT: 22.3 ± 1.72 h
  Tmax: 1 min
  Vd: 2.88 ± 0.15 L
  t1/2: 6 ± 0.5 h
DMH-induced CRC
  Ki67-positive cells in colon: 58.88 ± 1.2%
